Results: US20050187141A1, “Control of gene induced by oxidated lipids in human artery wall cells” (The Regents of the University of California, priority 2000, published 2005)

Columns and labels:
[1] = Lipoprotein cholesterol levels (FPLC) in apo E deficient mice; format: in vivo; conditions: 2.0 mg/ml in drinking water, 24 and 48 hrs, FIG. 6
Procedure: Apo E deficient mice were purchased from Jackson Laboratories (Bar Harbor, Me.). The mice were 5 weeks old at the time of the experiments. The animals were maintained on a chow diet containing 4% fat, obtained from Ralston-Purina (St. Louis, Mo.). Synthetic 1,2-ditetradecanoyl-sn-glycero-3-phosphocholine (shown in the figure as circles at 24 h and as triangles at 48 h and abbreviated as DGP; 99+% purity, catalog # P 2663, Lot # 17H8362, Sigma Chemical Company, St. Louis Mo.) was added at 2.0 mg/ml to the drinking water of one group of apo E deficient mice (n=5). […] After 24 and 48 hrs blood was collected from the retroorbital sinus under mild anesthesia into heparinized tubes under an approved protocol of the UCLA Animal Research Committee. Plasma was separated and was fractionated using fast protein liquid chromatography (FPLC). Cholesterol content of the fractions was determined using a kit (Infinity reagent) obtained from Sigma Chemical Company.

lesions = test: Lesion regression in 10 month old apo E deficient mice; format: in vivo; conditions: 1.0 mg/ml in drinking water for five weeks after 10 months on chow, FIG. 10
Procedure: Apo E deficient mice were purchased from Jackson Laboratories (Bar Harbor, Me.). The mice were maintained on a chow diet containing 4% fat, obtained from Ralston-Purina (St. Louis, Mo.) for 10 months at which time one group (n=5) were sacrificed and lesions determined. A second group (n=8) received 1.0 mg/ml of synthetic 1,2-ditetradecanoyl-sn-glycero-3-phosphorylcholine (DGP, approximately 99% pure, catalog # P 7331, Sigma Chemical Company, St. Louis, Mo.) in their drinking water for another five weeks. […] After 5 weeks of treatment, the animals were sacrificed. The hearts and blood vessels from the three groups were harvested and processed as previously reported (Qiao 1994) to determine lesion area.

[2] = test system: Human artery wall cell cocultures; test: HDL protective capacity and LDL susceptibility to oxidation in human artery wall cell cocultures; format: in vivo, apo E deficient mice; conditions: 18 hrs, FIG. 8
Procedure: Plasma fractions obtained as described above were pooled in the region containing LDL and the region containing HDL. Human artery wall cell cocultures were prepared as reported previously (Navab et al. (1997) J Clin Invest., 99: 2005-2019) and used to determine the extent of LDL oxidation as judged by the level of monocyte chemotactic activity generated by oxidized LDL. As the assay controls, to some wells containing the artery wall cocultures was added a standard human LDL (h LDL) at 200 μg LDL protein per ml. To other wells was added h LDL+human HDL (h HDL) at 350 μg HDL protein per ml. The protective capacity of HDL obtained from apo E deficient mice was then tested. To some wells was added standard human LDL (Std. h LDL) at 200 μg LDL protein per ml plus 50 μg of HDL cholesterol obtained from the mice that had received drinking water without additions (Std. h LDL+Cont. E null HDL). To other wells in addition to human LDL, HDL (at 50 μg cholesterol/ml) obtained from mice given drinking water containing 2.0 mg per ml of 1,2-dimyristoyl-sn-glycero-3-phosphocholine (1,2-ditetradecanoyl-sn-glycero-3-phosphocholine) (Std. h LDL+DGP HDL) was added and incubated for 18 hrs. LDL susceptibility to oxidation was additionally determined. […] The values are mean±SD of the number of monocytes counted in 9 high power fields from quadruple wells. […]

fatty streak lesions = test: Fatty streak lesions in apo E deficient mice; format: in vivo; conditions: 1.0 mg/ml in drinking water, 5 weeks, FIG. 9
Procedure: Apo E deficient mice were purchased from Jackson Laboratories (Bar Harbor, Me.). The mice were 5 weeks old at the time of the experiments. The animals were maintained on a chow diet containing 4% fat, obtained from Ralston-Purina (St. Louis, Mo.). One group (n=10) was given in their drinking water 1.0 mg/ml of 1,2-dimyristoyl-sn-glycero-3-phosphocholine (1,2-ditetradecanoyl-sn-glycero-3-phosphocholine) (shown as DGP on the figure, approximately 99% pure, catalog # P 7331, Sigma Chemical Company, St. Louis, Mo.). […] After 5 weeks of treatment, the animals were sacrificed and hearts were harvested and processed according to the methods described by Qiao et al. (1994) Arterioscl Thromb, 14: 1480-1497). In brief, 10 μm thick cryosections were stained with Oil red 0 and hematoxylin and counterstained with fast green and examined by light microscopy for the identification of atheromatous lesions. Lesion size was measured using a 1.0 cm optical grid with 20×20 grid lines. Under 10× magnification, each square corresponded to 1/400 mm^2 (or 2500 μm^2). A square with lipophilic stain was counted as lesion if the visually observed stain covered at least 1/8th of the square.

paraoxonase-1 (PON1) = test: Paraoxonase activity of plasma fractions of apo E deficient mice; format: in vivo; conditions: 2.0 mg/ml in drinking water, FIG. 7
Procedure: Plasma fractions obtained as described in above were analyzed for paraoxonase activity using paraoxon a substrate as reported by Watson et al. (1995) J Clin Invest., 96: 2882-2891). The control samples are shown as diamonds in the figure.

[3] = test system: human aortic endothelial cells; test: Monocyte adhesion assay with supernatants of Ox-PAPC treated HAECs; format: cell-based; conditions: oligonucleotide 100 nM, 18 h, then Ox-PAPC 50 μg/ml 4 h, FIG. 4
Procedure: (§1) Human aortic endothelial cells were transfected with either ‘antisense’ or ‘sense’ phosphorothioate oligonucleotides (100 nM) to human MKP-1. Eighteen hours later, control and transfected cells were either left untreated or treated with Ox-PAPC (50 μg/ml) for an additional four hours. Following the treatments, cell supernatants were collected and analyzed in a monocyte adhesion assay.

human MKP-1 = test: Western blot of MKP-1 protein in Ox-PAPC treated HAECs after oligonucleotide transfection; format: cell-based; conditions: oligonucleotide 100 nM, 18 h, then Ox-PAPC 50 μg/ml 4 h, FIG. 3A, 3B
Procedure: HAECs were transfected with either ‘antisense’ or ‘sense’ phosphorothioate oligonucleotides (100 nM) to human MKP-1. Eighteen hours later, control and transfected cells were either left untreated or treated with Ox-PAPC (50 μg/ml) for an additional four hours.

[4] = test system: human aortic endothelial cells; test: Monocyte chemotactic activity of supernatants of Ox-PAPC treated HAECs; format: cell-based; conditions: oligonucleotide 100 nM, 18 h, then Ox-PAPC 50 μg/ml 4 h, FIG. 5A-5C
Procedure: as §1, with “for” for “in a”, “chemotactic activity.” for “adhesion assay.”

influenza A = conditions: injected, mice; cited from earlier work

Compound: CCCCCCCCCCCCCC(=O)OC[C@H](COP(=O)([O-])OCC[N+](C)(C)C)OC(=O)CCCCCCCCCCCCC [1,2-dimyristoyl-sn-glycero-3-phosphocholine]
- high density lipoprotein (HDL) levels [1]: dramatic increase
- very low density lipoproteins (VLDL) or low density lipoproteins (LDL) [1]: without a significant change
- lesion area change (lesions): dramatic lesion regression
- HDL protective capacity (protecting LDL against oxidation) ([2]; HDL from mice given 2.0 mg per ml in drinking water, 50 μg cholesterol/ml): more effective in protecting LDL against oxidation
- LDL susceptibility to oxidation ([2]; LDL from mice given 2.0 mg per ml in drinking water, 100 μg LDL cholesterol per ml): more resistant to oxidation by artery walls
- reduction in atherosclerosis (fatty streak lesions): 84.1%
- content of paraoxonase-1 (PON1) associated with HDL (paraoxonase-1 (PON1)): dramatic increase

Compound: antisense oligonucleotides: antisense phosphorothioate oligonucleotide to human MKP-1; 5′-GGAACTCAGTGGAACTCAGG-3′ (SEQ ID NO:2) (antisense GGAACTCAGTGGAACTCAGG; all phosphorothioate, sugars by position and methylation of C not given here)
- Ox-PAPC induction of monocyte adherence [3]: did not promote monocyte adhesion
- Ox-PAPC-induced MKP-1 protein expression (human MKP-1): prevent the accumulation of MKP-1 protein
- monocyte chemotactic activity / monocyte chemotaxis [4]: did not promote monocyte chemotaxis

Compound: apo A-I: apo A-I, injected in mice with influenza A in a copending application
- signs and symptoms of influenza A (influenza A): greatly ameliorated
